The text below walks through data of BindingDB's records for patent US20240425524 (Merck Sharp & Dohme, 2024).

The experiment deals with T1, Receptor-interacting serine/threonine-protein kinase 1 (Homo sapiens, UniProt Q13546).
T1 sequence (Q13546 whole entry): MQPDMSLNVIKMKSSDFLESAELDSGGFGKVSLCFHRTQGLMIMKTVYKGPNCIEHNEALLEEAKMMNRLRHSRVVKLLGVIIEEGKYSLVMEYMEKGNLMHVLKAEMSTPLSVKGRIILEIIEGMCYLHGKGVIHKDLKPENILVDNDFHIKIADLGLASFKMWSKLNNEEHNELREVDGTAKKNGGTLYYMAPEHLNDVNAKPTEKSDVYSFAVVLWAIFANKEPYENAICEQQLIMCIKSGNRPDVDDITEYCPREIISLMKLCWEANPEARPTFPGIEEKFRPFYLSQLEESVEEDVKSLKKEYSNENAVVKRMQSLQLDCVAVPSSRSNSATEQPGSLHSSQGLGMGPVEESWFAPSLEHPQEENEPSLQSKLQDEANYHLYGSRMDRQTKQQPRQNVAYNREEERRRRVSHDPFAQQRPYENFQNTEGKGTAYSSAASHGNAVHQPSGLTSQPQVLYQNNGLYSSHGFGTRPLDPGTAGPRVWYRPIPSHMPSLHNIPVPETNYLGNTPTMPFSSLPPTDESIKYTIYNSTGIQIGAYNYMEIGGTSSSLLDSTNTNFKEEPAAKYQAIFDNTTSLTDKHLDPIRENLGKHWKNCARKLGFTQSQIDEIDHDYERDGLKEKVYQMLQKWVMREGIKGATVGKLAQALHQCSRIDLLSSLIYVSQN
Description: RIPK1-ADP-Glo Enzymatic Assay. Here is the method: In this assay, the potency (EC50) of each compound was determined from a ten-point (1:3 serial dilution: top compound concentration of 100000 nM) titration curve using the following outlined procedure. To each well of a white ProxiPlus 384 well-plate, 30 nL of compound (1% DMSO in final assay volume of 3 μL) was dispensed, followed by the addition of 2 μL of 1x assay buffer (25 mM Hepes 7.3, 20 mM MgCl2, 50 mM NaCl, 1 mM DTT, 0.005% Tween20, and 0.02% BSA) containing 37.5 nM of GST-RIPK1 (recombinant GST-RIPK1 kinase domain (residues 1-327) enzyme produced from baculovirus-transfected Sf21 cells: MW=62 kDa). Plates were placed in an ambient temperature humidified chamber for a 30 minutes pre-incubation with compound. Subsequently, each reaction was initiated by the addition of 1 μL 1× assay buffer containing 900 μM ATP and […]. The final reaction in each well of 3 μL consists of 25 nM of GST-RIPK1, 300 µM ATP, and 3 μM dephosphorylated-MBP. Kinase reactions were allowed to proceed for 150 minutes prior to adding ADP-Glo reagents per Promega's outlined kit protocol. Dose-response curves were generated by plotting percent effect (% product conversion: Y-axis) vs. Logio compound concentrations (X-axis).
In general terms: ADP-Glo first removes unused ATP, then detects ADP through luciferase.

SMILES strings stand for the structures.

In the case of `O=C1N2[C@H](c3cc(F)cc(F)c3)CCN2CC12CCN(c1cc(Cl)c(F)cn1)CC2` [US20240425524, Example 1.10], the EC50 (commonly the concentration at which the effect is half-maximal) worked out at 10 nM.

Take `Cc1csc2ncnc(N3CCC4(CC3)CN3CC[C@@H](c5cc(F)cc(F)c5)N3C4=O)c12` [US20240425524, Example 1.15]: a half-maximal response (EC50) required 17 nM.
